This passage reports ED50 and MIC results from patent US4288590A, “7 -[Dα-(4-Hydroxy-1,5-naphthyridine-3-carboxamido)-α-arylacetam ido]-3-(N,N-dimethyl-aminomethylpyridinium) methyl-3-cephem-4-carboxylates” (Bristol-Myers Company, priority 1980, dated 1981).

The test system of one test is P. morganii A15153. In words: In vivo efficacy, experimental infection in mice. Particulars: Morganella morganii, A15153, in Mus musculus, im, 120 h, read-out: PD50 (median protective dose).
The test system of test [1] is S. aureus Smith A9537. Nature of the test: In vivo efficacy, experimental infection in mice. The note with it: Staphylococcus aureus, SMITHA9537, in Mus musculus, im, 120 h, read-out: PD50 (median protective dose).
Procedure: (§2) The mice were treated with test compound by im route immediately after the bacterial challenge.
Another test relates to K. pneumoniae A9977. Nature of the test: In vivo efficacy, experimental infection in mice. Particulars: Klebsiella pneumoniae, A9977, in Mus musculus, im, 120 h, read-out: PD50 (median protective dose).
Test [2] relates to E. coli Juhl A15119. In words: In vivo efficacy, experimental infection in mice. The note with it: Escherichia coli, JUHLA15119, in Mus musculus, im, 120 h, read-out: PD50 (median protective dose).
Procedure: as §2
Another test relates to E. cloacae. In words: In vitro activity, MIC of strain group (Table 2). Type of test: cell-based. The note with it: Enterobacter cloacae; Gn-II E. cloacae, 7 strains; read-out: Geometric mean of MIC.
The next test has as its system E. coli A15164. In words: MIC, serial two-fold agar dilution (Table 1). In kind it is cell-based. The note with it: Escherichia coli; E. coli A15164, cephalothin-resistant; Mueller-Hinton agar. How it is done: (§1) Minimum inhibitory concentrations (MIC) of BB-S 651, BB-S 669 and BB-S 676 were determined by serial two-fold agar dilution method using Steers' apparatus on Mueller-Hinton agar plate against 15 test organisms for primary screening as shown in Table 1.
Background: In agar dilution the substance is mixed into plates at graded concentrations.

A further test has as its system Ps. aeruginosa A20718. In words: MIC, serial two-fold agar dilution (Table 1). The note with it: Pseudomonas aeruginosa, Mueller-Hinton agar. Type of test: cell-based. How it is done:
as §1

For a further test, the system named is S. marcescens A20019. In words: MIC, serial two-fold agar dilution (Table 1). Particulars: Serratia marcescens, Mueller-Hinton agar. Type of test: cell-based. How it is done: as §1
A further test relates to E. coli A9660. Nature of the test: MIC, serial two-fold agar dilution (Table 1). In kind it is cell-based. The note with it: Escherichia coli; E. coli A9660, cephalothin-sensitive; Mueller-Hinton agar. How it is done:
as §1

Another test concerns Ps. aeruginosa A20717. In words: MIC, serial two-fold agar dilution (Table 1). Type of test: cell-based. The note with it: Pseudomonas aeruginosa, Mueller-Hinton agar. How it is done:
as §1

In the next test the test system is E. coli A15148. In words: MIC, serial two-fold agar dilution (Table 1). The note with it: Escherichia coli; E. coli A15148, cephalothin-resistant; Mueller-Hinton agar. Type of test: cell-based. As to the method: as §1
In test [3] the test system is S. aureus BX-1633-2 A9606. Nature of the test: MIC, serial two-fold agar dilution (Table 1). Particulars: Staphylococcus aureus, BX16332A9606; S. aureus BX-1633-2 A9606, penicillinase-producing; Mueller-Hinton agar; read-out: MIC. Type of test: cell-based. How it is done:
as §1

Another test relates to Ps. aeruginosa A15150. In words: MIC, serial two-fold agar dilution (Table 1). Type of test: cell-based. Particulars: Pseudomonas aeruginosa, Mueller-Hinton agar. How it is done: as §1
The next test concerns Ps. aeruginosa A9843. Nature of the test: MIC, serial two-fold agar dilution (Table 1). The note with it: Pseudomonas aeruginosa, Mueller-Hinton agar. Type of test: cell-based. How it is done:
as §1

The subject of a further test is S. aureus #193. In words: MIC, serial two-fold agar dilution (Table 1). In kind it is cell-based. Particulars: Staphylococcus aureus; S. aureus #193, penicillinase-producing; Mueller-Hinton agar; read-out: MIC. As to the method: as §1
Test [4] concerns S. aureus Smith A9537. In words: MIC, serial two-fold agar dilution (Table 1). In kind it is cell-based. Particulars: Staphylococcus aureus, SMITHA9537, Mueller-Hinton agar. How it is done:
as §1

A further test has as its system E. cloacae A9656. Nature of the test: MIC, serial two-fold agar dilution (Table 1). In kind it is cell-based. Particulars: Enterobacter cloacae, Mueller-Hinton agar. How it is done: as §1
In test [5] the test system is E. coli Juhl A15119. In words: MIC, serial two-fold agar dilution (Table 1). The note with it: Escherichia coli, JUHLA15119; E. coli Juhl A15119, cephalothin-sensitive; Mueller-Hinton agar. Type of test: cell-based. As to the method: as §1
In a further test the test system is Ps. aeruginosa A20229. Nature of the test: MIC, serial two-fold agar dilution (Table 1). In kind it is cell-based. The note with it: Pseudomonas aeruginosa, Mueller-Hinton agar. How it is done:
as §1

A further test deals with S. aureus 209P A9497. Nature of the test: MIC, serial two-fold agar dilution (Table 1). Type of test: cell-based. The note with it: Staphylococcus aureus; S. aureus 209P A9497; Mueller-Hinton agar; read-out: MIC. As to the method: as §1

Where a name gives a salt, the structure may show the parent alone.

Procedure for K. pneumoniae A9977: as §2
Procedure for P. morganii A15153: as §2

As for `CCN1CCN(C(=O)N[C@@H](C(=O)N[C@@H]2C(=O)N3C(C(=O)O)=C(CSc4nnnn4C)CS[C@H]23)c2ccc(O)cc2)C(=O)C1=O` [Cefoperazone, reference compound], the ED50 was 6.3 mg/kg in the test on P. morganii A15153, 2.4 mg/kg in the test with S. aureus Smith A9537 [1], 0.6 mg/kg in the test with K. pneumoniae A9977 and 1.1 mg/kg in the test on E. coli Juhl A15119 [2].

By MIC is commonly meant the lowest concentration found to suppress growth. Take `CN(C)Cc1ccc[n+](CC2=C(C(=O)[O-])N3C(=O)C(NC(=O)[C@H](NC(=O)c4cnc5cccnc5c4O)c4ccc(O)cc4)C3SC2)c1` (stereo partly drawn) [BB-S 651, 7-[D-α-(4-Hydroxy-1,5-naphthyridine-3-carboxamido)-α-(4-hydroxyphenyl)acetamido]-3-(3-N,N-dimethylaminomethylpyridinium)methyl-3-cephem-4-carboxylate Hydrochloride]: the ED50 is more than 100 mg/kg in the test on P. morganii A15153, 1.1 mg/kg in the test with S. aureus Smith A9537 [1], 7.4 mg/kg in the test with K. pneumoniae A9977 and 1.9 mg/kg in the test with E. coli Juhl A15119 [2]. Also, the MIC in the test with E. cloacae was more than 100 µg/mL; in the test with E. coli A15164, 25 µg/mL; with Ps. aeruginosa A20718, 0.8 µg/mL; against S. marcescens A20019 it was 50 µg/mL; against E. coli A9660 it was 1.6 µg/mL; in the test with Ps. aeruginosa A20717, 1.6 µg/mL. Also, the minimum inhibitory concentration (MIC) in the test with E. coli A15148 amounted to 3.1 µg/mL; in [3], 6.3 µg/mL; with Ps. aeruginosa A15150, 0.8 µg/mL; in the test with Ps. aeruginosa A9843, 1.6 µg/mL; in the test with S. aureus #193, 6.3 µg/mL; in the test with S. aureus Smith A9537 [4], 3.1 µg/mL. The MIC against E. cloacae A9656 amounted to 12.5 µg/mL; in the test with E. coli Juhl A15119 [5], 6.3 µg/mL; against Ps. aeruginosa A20229, 0.8 µg/mL; in the test with S. aureus 209P A9497, 0.8 µg/mL.
